Assays:
[1] = tested on: A20 mouse B cell lymphoma; assay: Subcutaneous A20 lymphoma syngeneic model, anti-tumour efficacy; type: in vivo
Source text: (§1) The in vivo effect of METTL3 inhibition in combination with anti-PD1 immune checkpoint inhibitor was investigated using syngeneic mouse tumour models in immune-competent hosts. Mouse tumour models can be grown in appropriate host strains and are widely used to investigate the effects of therapeutic agents on the immune system and cancer growth. There are a limited range of mouse syngeneic tumour models available, far fewer than human cell lines, and they are widely used in the art to support potential clinical utility of immune stimulatory approaches across multiple indications. We exemplify the potential role of STM3480 and combinations with immune checkpoint inhibitors such as anti-PD-1 antibodies in multiple tumour models including A20 (murine B cell lymphoma), EMT-6 (murine breast cancer) and CT-26 (murine colorectal cancer).
The objective of this study is to assess the anti-tumour efficacy of STM3480 in combination with anti-PD1 in subcutaneous A20 mouse B cell lymphoma cancer model in female BALB/c mice.
A20 (#ATCC TIB-208) mouse B cell lymphoma cells were cultured in (RPMI-1640+10% non H.I. FBS+0.05 mM 2-mercaptoethanol) media. 5×10^5 viable cells in 0.1 ml PBS were injected subcutaneously into the left flank of 7-9 week old female BALB/cN (BALB/cAnNCrl) Crl mice utilising 27 gauge needles following skin disinfection with 70% ethanol.
Tumours were measured three times a week and tumour volumes estimated using the formula 0.5 (L×W^2) by measuring the tumour in two dimensions using electronic callipers for the duration of the study.
Mice were randomly allocated to four treatment groups and treatment commenced when tumours reached a mean volume of ˜50-100 mm^3. Mice were allocated to their treatment groups with uniform mean tumour volume between groups. Treatment was continued for up to 3 weeks, or until individual mice were sacrificed for humane reasons according to Home Office license regulations (e.g. body weight loss >20%; tumour volume >1500 mm^3; tumour ulceration; loss of clinical condition). The final dose was given on day 32 after implantation.
Vehicle for STM3480—Hydroxypropyl-β-Cyclodextrin (HPBCD)/Sodium Acetate buffer pH:4.6 50 mM (10%/90%; w/v): Weigh 1.025 g of sodium acetate anhydrous. Add 700 μl of glacial acetic acid then make up to 500.0 ml with ultrapurified water. pH:4.6 50 mM.
For 1 ml volume 5 mg/ml STM3480 dosing solution: Weigh 5.0 mg of STM00003480 compound (Batch: EV-WZM001-421-002). Add 1.0 mL of HPBCD/Acetate buffer pH:4.6 50 mM (10%/90%; w/v). Magnetic stirring at high speed at ambient temperature; Overnight stirring may be required if there are any signs of precipitation. The formulation is a slight yellow solution with very few particles in suspension. Homogenize with a vortex before administration. […]

[2] = tested on: CT26 mouse colorectal cancer; assay: Subcutaneous CT26 colorectal cancer syngeneic model, anti-tumour efficacy; type: in vivo; conditions: 10 per group
Source text: as §1
The objective of this study is to assess the anti-tumour efficacy of STM3480 in combination with anti-PD1 in subcutaneous CT26 mouse colorectal cancer model in female BALB/c mice. CT26.WT (CRL-2638) mouse […] cells were cultured in (RPMI—1640+10% FBS+2 mM L-Glutamine) media. […]
Tumours were measured three times a week and tumour volumes estimated using the formula 0.5 (L×W^2) by measuring the tumour in two dimensions using electronic callipers for the duration of the study. […]

Kasumi1 AML cell line = assay: AML cell viability, CellTiter-Glo combination matrix, Kasumi1; type: cell-based
Experimental: The sensitivity of AML cell lines to combinations of METTL3 inhibitor and standards of care was determined as described. Dose response curves of venetoclax were determined either alone or in the presence of different concentrations of METTL3 inhibitor that are known to be active in cells.
Synergistic interactions occur when the IC50 value decreases in the presence of METTL3 inhibitor. […] Antagonistic interactions occur when the IC50 value increases in the presence of METTL3 inhibitor.
24 h before cell treatment, homogenize, stain with Trypan blue and count viable cells using CellOMeter Auto T4. Dilute cells in media at 400 000 cells/ml to ensure an exponential growth the day after.
On treatment day, homogenize, stain with Trypan blue and count viable cells using CellOMeter Auto T4. Dilute to the proper cell seeding density according to Table 6 in cell media.
• Dispense drug (see Table 7) and METTL3 inhibitor in semi-log dose-response matrix and DMSO in 384-well plates using D300e Nanodispenser (Tecan). • 6× compound solution preparation: add 40 μL of cell medium in compound-containing plates and homogenize using the ViaFlo device (Integra) • Dispense 30 μl of cell suspension per well in three replicate 384-well white Ultra-Low-Attachment plates (Sbio) using ViaFlow device (Integra) • Transfer 6 μL of the 6× compound solution in each 30 μL cell suspension-containing plate. • Incubate at 37° C. 5% CO2 for 3 to 5 days.
• Add 35 μL CellTiter-Glo (Promega) in wells (vol/vol) using ViaFlo device (Integra). • Incubate at RT 10 min in the dark, with agitation the first minute, and read luminescence on the Ensight device (Perkin Elmer).
Raw data were converted to % viability by normalization to DMSO controls. IC50 determination was performed using GraphPad Prism and fitting curves to the standard nonlinear regression four parameter equation (Y=Bottom+(Top-Bottom)/(1+(IC50/X)^HillSlope)) least squares method, and synergy was assessed by comparison of IC50 values of the standard of care in the presence or absence of different concentrations of METTL3 inhibitor (see FIGS. 12 to 19).

**Q.** Which “tumour growth compared to the vehicle control (mean tumour volume)” value ([1]; A20, FIG. 3) does the source give for `O=C(NCc1ccc2cc(CNCC3CCC3)[nH]c2c1)c1cc(=O)n2ccccc2n1` [STM3480, N-[(2-{[(cyclobutylmethyl)amino]methyl}-1H-indol-6-yl)methyl]-4-oxo-4H-pyrido[1,2-a]pyrimidine-2-carboxamide] here?
**A.** reduction of tumour growth

**Q.** And the “Mean tumour volume d24” value ([1]; A20, female BALB/c mice, STM3480 50 mg/kg p.o., anti PD1 10 mg/kg i.p. BIW, up to 3 weeks, 10 per group)?
**A.** 425 mm3

**Q.** And the “progressive tumour growth, animals” value ([1]; A20, individual tumours (FIG. 4))?
**A.** 8/10

**Q.** And the “No. mice with complete regressions” value ([1]; A20, STM3480 50 mg/kg p.o., anti PD1 10 mg/kg i.p. BIW, 10 per group)?
**A.** 1

**Q.** What about the “Mean tumour volume d28” value ([2]; CT26, female BALB/c mice, STM3480 50 mg/kg p.o., anti PD1 10 mg/kg i.p. BIW, up to 3 weeks) of the same molecule?
**A.** 768 mm3

**Q.** And the “No. mice with regressions” value ([2]; CT26)?
**A.** 0

**Q.** And the “cell viability with increasing concentrations of METTL3 inhibitor” value (Kasumi1 AML cell line; Kasumi1, combination with daunorubicin)?
**A.** dose-dependent decrease

**Q.** What about the “interaction with 5′-azacitidine” value (Kasumi1 AML cell line; Kasumi1 AML cell line) of the same molecule?
**A.** additive

**Q.** What about the interaction with cytarabine (Kasumi1 AML cell line; Kasumi1 AML cell line) of the same molecule?
**A.** additive

**Q.** And the interaction with daunorubicin (Kasumi1 AML cell line; Kasumi1 AML cell line)?
**A.** additive

**Q.** What about the interaction with venetoclax (Kasumi1 AML cell line; Kasumi1 AML cell line) of the same molecule?
**A.** synergistic

— patent US20240277715A1, “COMBINATION THERAPIES COMPRISING A METTL3 INHIBITOR AND A FURTHER ANTICANCER AGENT” (Storm Therapeutics Limited, priority 2021, published 2024)
